The values that follow come from patent publication US20240299452A1, “Rapamycin and Cell Therapy” (Innovative Cellular Therapeutics Holdings, Ltd., priority 2023, published 2024).

Data set [1] deals with CD19 CAR T cells stimulated with nalm6 cells. Nature of the data set: CAR T cell proliferation after 96 hours with rapamycin. In kind it is cell-based. The conditions noted are these: nalm6 stimulation, CD4+ and CD8+ subsets. The protocol: The following study investigated the effects of rapamycin on CAR T cells and tumor cell lines. In the first part of the experiment, cytokine release assays were performed. […] In the same experiments, T cell proliferation was assessed to determine whether rapamycin affects the expansion of CAR T cells. […] In the last part of the study, rapamycin was directly applied to two types of tumor cell lines, PC3 and LNCAP, to assess its impact on tumor cell proliferation. […] It can decrease the proliferation of tumor cells, aligning with clinical observations.
The bar graphs depict the proliferation rates of CAR T cells, specifically CD4+ and CD8+ subsets, after 96 hours of stimulation with CD19 antigen and varying concentrations of rapamycin. […] CD8: The right graph indicates the percentage of proliferating CD8+ CAR T cells under the same treatment conditions as CD4+.

The conditions of data set [2]: taken orally at a dose of 2 mg/day; read-out: maximum blood concentration (Cmax); cited from earlier work.

As to `CO[C@H]1C[C@@H]2CC[C@@H](C)[C@@](O)(O2)C(=O)C(=O)N2CCCC[C@H]2C(=O)O[C@H]([C@H](C)C[C@@H]2CC[C@@H](O)[C@H](OC)C2)CC(=O)[C@H](C)/C=C(\C)[C@@H](O)[C@@H](OC)C(=O)[C@H](C)C[C@H](C)/C=C/C=C/C=C/1C` [rapamycin, Rapamycin], the “CAR T cell proliferation” value in data set [1] was “not inhibited”. The Cmax in data set [2] was 16 nM.
